# Laboratory results reported in ChEMBL document CHEMBL1151415, “Plant anticancer agents. XXIV. Alkaloid constituents of Simaba multiflora” (1983).
# Activity calls are given as the source filed them. The rule behind the calls is not given here.
# System: KB
# Test: Cytotoxicity against human KB cells
# Type: functional
# Conditions: for EC50: read-out: ED50 (the source's name)
SMILES,Activity,EC50
COn1c(=O)cc2c3cc(O)ccc3n3c(=O)ccc1c23,inactive,–
O=c1ccc2nccc3c4cc(O)ccc4n1c23,–,2.2 µg/mL
O=c1cc2c3ccccc3n3c(=O)ccc([nH]1)c23,inactive,–
COc1ccc2c(c1)c1ccnc3ccc(=O)n2c31,–,2.1 µg/mL
COn1c(=O)cc2c3ccccc3n3c(=O)ccc1c23,inactive,–
